From patent US12708630B2, “Combined therapy of 4′-thio-5-aza-2′-deoxycytidine and Venetoclax” (PINOTBIO, INC., priority 2021, dated 2026)

Experiments:
Assay in all cases: drug activity profiling cytotoxicity
Type in all cases: cell-based
[1] = tested on: 647-V; settings: Homo sapiens; 647-V cell line, Bladder; read-out: Aza-T-dCyd IC50
Procedure: (§1) To obtain a biomarker for Aza-T-dCyd, drug activity profiling analysis was performed to evaluate the cytotoxicity of 200 cell lines.
(§2) The drug responsiveness analysis of Aza-T-dCyd through drug activity profiling and genomic analysis of 200 cell lines confirmed the potent efficacy of Aza-T-dCyd in various solid tumors (Table 2).

[2] = tested on: BE(2)C; settings: Homo sapiens; BE(2)C cell line, CNS (Neuroblastoma); read-out: Aza-T-dCyd IC50
Procedure: as §1, §2

[3] = tested on: BM-1604; settings: BM-1604 cell line, Prostate; read-out: Aza-T-dCyd IC50
Procedure: as §1, §2

[4] = tested on: C-33A; settings: Homo sapiens; C-33A cell line, Female GU (Cervix); read-out: Aza-T-dCyd IC50
Procedure: as §1, §2

[5] = tested on: C32; settings: Homo sapiens; C32 cell line, Skin (Melanoma); read-out: Aza-T-dCyd IC50
Procedure: as §1, §2

[6] = tested on: CA46; settings: Homo sapiens; CA46 cell line, Burkitt's lymphoma; read-out: Aza-T-dCyd IC50
Procedure: as §1, §2

[7] = tested on: CGTH-W-1; settings: Homo sapiens; CGTH-W-1 cell line, Endocrine (Thyroid); read-out: Aza-T-dCyd IC50
Procedure: as §1, §2

[8] = tested on: Caki-1; settings: Homo sapiens; Caki-1 cell line, Kidney; read-out: Aza-T-dCyd IC50
Procedure: as §1, §2

[9] = tested on: DB; settings: Homo sapiens; DB cell line, B-cell lymphoma; read-out: Aza-T-dCyd IC50
Procedure: as §1, §2

[10] = tested on: DOHH-2; settings: Homo sapiens; DOHH-2 cell line, B-cell lymphoma; read-out: Aza-T-dCyd IC50
Procedure: as §1, §2

[11] = tested on: Daudi; settings: Homo sapiens; Daudi cell line, Burkitt's lymphoma; read-out: Aza-T-dCyd IC50
Procedure: as §1, §2

[12] = tested on: EB2; settings: Homo sapiens; EB2 cell line, Burkitt's lymphoma; read-out: Aza-T-dCyd IC50
Procedure: as §1, §2

[13] = tested on: HT-1197; settings: Homo sapiens, HT1197; HT-1197 cell line, Bladder; read-out: Aza-T-dCyd IC50
Procedure: as §1, §2

[14] = tested on: HT-3; settings: Homo sapiens; HT-3 cell line, Female GU (Cervix); read-out: Aza-T-dCyd IC50
Procedure: as §1, §2

[15] = tested on: KHOS-240S; settings: KHOS-240S cell line, Bone (Osteosarcoma); read-out: Aza-T-dCyd IC50
Procedure: as §1, §2

[16] = tested on: MC116; settings: Homo sapiens; MC116 cell line, B-cell lymphoma; read-out: Aza-T-dCyd IC50
Procedure: as §1, §2

[17] = tested on: MCF7; settings: Homo sapiens; MCF7 cell line, Breast; read-out: Aza-T-dCyd IC50
Procedure: as §1, §2

[18] = tested on: MDA MB 231; settings: Homo sapiens; MDA MB 231 cell line, Breast; read-out: Aza-T-dCyd IC50
Procedure: as §1, §2

[19] = tested on: NCI-H292; settings: Homo sapiens; NCI-H292 cell line, Lung (NSCLC); read-out: Aza-T-dCyd IC50
Procedure: as §1, §2

[20] = tested on: NCI-H508; settings: Homo sapiens; NCI-H508 cell line, Colon; read-out: Aza-T-dCyd IC50
Procedure: as §1, §2

[21] = tested on: NTERA-2 cl.D1; settings: Homo sapiens; NTERA-2 cl.D1 cell line, Testis; read-out: Aza-T-dCyd IC50
Procedure: as §1, §2

[22] = tested on: OE19; settings: Homo sapiens; OE19 cell line, Head and Neck; read-out: Aza-T-dCyd IC50
Procedure: as §1, §2

[23] = tested on: PA-1; settings: Homo sapiens; PA-1 cell line, Female GU (Ovary); read-out: Aza-T-dCyd IC50
Procedure: as §1, §2

[24] = tested on: RPMI-7951; settings: Homo sapiens; RPMI-7951 cell line, Skin (Melanoma); read-out: Aza-T-dCyd IC50
Procedure: as §1, §2

[25] = tested on: SCC-4; settings: Homo sapiens; SCC-4 cell line, Head and Neck; read-out: Aza-T-dCyd IC50
Procedure: as §1, §2

[26] = tested on: SK-MEL-28; settings: Homo sapiens; SK-MEL-28 cell line, Skin (Melanoma); read-out: Aza-T-dCyd IC50
Procedure: as §1, §2

[27] = tested on: SK-PN-DW; settings: SK-PN-DW cell line, Sarcoma; read-out: Aza-T-dCyd IC50
Procedure: as §1, §2

[28] = tested on: SU-DHL-10; settings: Homo sapiens, SU-DHL10; SU-DHL-10 cell line, B-cell lymphoma; read-out: Aza-T-dCyd IC50
Procedure: as §1, §2

[29] = tested on: SU.86.86; settings: Homo sapiens; SU.86.86 cell line, Pancreas; read-out: Aza-T-dCyd IC50
Procedure: as §1, §2

[30] = tested on: SW1463; settings: Homo sapiens; SW1463 cell line, Colon; read-out: Aza-T-dCyd IC50
Procedure: as §1, §2

[31] = tested on: U-118 MG; settings: Homo sapiens; U-118 MG cell line, CNS (Glioma); read-out: Aza-T-dCyd IC50
Procedure: as §1, §2

**Q.** Which results are given for Nc1ncn([C@H]2CC(O)[C@@H](CO)S2)c(=O)n1 (stereo partly shown) [Aza-T-dCyd, 4′-thio-5-aza-2′-deoxycytidine]?
**A.** IC50 [1]: 408 nM; IC50 [2]: 373 nM; IC50 [3]: 4410 nM; IC50 [4]: 497 nM; IC50 [5]: > 10000 nM; IC50 [6]: 25.5 nM; IC50 [7]: 143 nM; IC50 [8]: 85.6 nM; IC50 [9]: 135 nM; IC50 [10]: 609 nM; IC50 [11]: 451 nM; IC50 [12]: 8190 nM; IC50 [13]: 7130 nM; IC50 [14]: 818 nM; IC50 [15]: 254 nM; IC50 [16]: 29.7 nM; IC50 [17]: 6470 nM; IC50 [18]: 210 nM; IC50 [19]: 194 nM; IC50 [20]: 542 nM; IC50 [21]: 42.7 nM; IC50 [22]: > 10000 nM; IC50 [23]: 39.2 nM; IC50 [24]: 527 nM; IC50 [25]: 2860 nM; IC50 [26]: 2500 nM; IC50 [27]: 847 nM; IC50 [28]: 36.6 nM; IC50 [29]: 508 nM; IC50 [30]: 303 nM; IC50 [31]: > 10000 nM
